Source: PubChem BioAssay AID330 (DTP/NCI, 2004)
Values joined by “and” are separate entries in the source; they are usually repeats but may differ in a detail not shown here. Identical values can stand only once. Inconclusive results and toxic doses are left out. How the source made its calls: active means survival T/C of 150% or more; inactive means T/C below 125% in these data.

System: P388 leukemia ip, CD2F1 mice, survival T/C
Assay: NCI In Vivo Anticancer Drug Screen. Data for tumor model P388 Leukemia (intraperitoneal) in CD2F1 (CDF1) mice
Settings: endpoint: median survival time, higher = longer survival
In short: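 Mice carrying the transplanted tumor received test compound or vehicle. Survival was recorded in each group, and the value is the treated-group measurement divided by that of the vehicle-treated control group.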

[1] = dose: 50.0 mg/kg/injection, schedule: Q01DX009 (ip), vehicle: Klucel (hydroxypropylcellulose) (HPC)
[2] = dose: 100.0 mg/kg/injection, schedule: Q01DX009 (ip), vehicle: Klucel (hydroxypropylcellulose) (HPC)
[3] = dose: 200.0 mg/kg/injection, schedule: Q01DX009 (ip), vehicle: Klucel (hydroxypropylcellulose) (HPC)
[4] = dose: 7.5 mg/kg/injection, schedule: Q01DX005 (ip), vehicle: saline with Tween-80
[5] = dose: 15.0 mg/kg/injection, schedule: Q01DX005 (ip), vehicle: saline with Tween-80
[6] = dose: 60.0 mg/kg/injection, schedule: Q01DX005 (ip), vehicle: saline with Tween-80
[7] = dose: 120.0 mg/kg/injection, schedule: Q01DX005 (ip), vehicle: saline with Tween-80
[8] = dose: 50.0 mg/kg/injection, schedule: Q01DX005 (ip), vehicle: saline with Tween-80
[9] = dose: 100.0 mg/kg/injection, schedule: Q01DX005 (ip), vehicle: saline with Tween-80
[10] = dose: 200.0 mg/kg/injection, schedule: Q01DX005 (ip), vehicle: saline with Tween-80
[11] = dose: 60.0 mg/kg/injection, schedule: Q01DX005 (ip), vehicle: saline
[12] = dose: 120.0 mg/kg/injection, schedule: Q01DX005 (ip), vehicle: saline
[13] = dose: 240.0 mg/kg/injection, schedule: Q01DX005 (ip), vehicle: saline

Measured: T/C

CC[n+]1c(-c2ccccc2)c2cc(N)ccc2c2ccc(N)cc21
active: dose: 1.56 mg/kg/injection, schedule: Q01DX009 (ip), vehicle: saline 150 % of control | dose: 3.13 mg/kg/injection, schedule: Q01DX009 (ip), vehicle: saline 153 % of control | dose: 3.13 mg/kg/injection, schedule: Q01DX009 (ip), vehicle: water 161 % of control | dose: 6.25 mg/kg/injection, schedule: Q01DX009 (ip), vehicle: saline 170 % of control | dose: 18.0 mg/kg/injection, schedule: Q04DX003 (ip), vehicle: saline sonified 150 % of control
inactive: dose: 0.39 mg/kg/injection, schedule: Q04DX003 (ip), vehicle: saline 101 % of control | dose: 0.39 mg/kg/injection, schedule: Q04DX003 (ip), vehicle: water 103 % of control | dose: 0.78 mg/kg/injection, schedule: Q04DX003 (ip), vehicle: saline 100 % of control | dose: 0.78 mg/kg/injection, schedule: Q04DX003 (ip), vehicle: water 104 % of control | dose: 1.56 mg/kg/injection, schedule: Q04DX003 (ip), vehicle: saline 106 % of control | dose: 1.56 mg/kg/injection, schedule: Q04DX003 (ip), vehicle: water 113 % of control | dose: 3.13 mg/kg/injection, schedule: Q04DX003 (ip), vehicle: saline 114 % of control | dose: 3.13 mg/kg/injection, schedule: Q04DX003 (ip), vehicle: water 123 % of control | dose: 25.0 mg/kg/injection, schedule: Q04DX003 (ip), vehicle: saline 117 % of control | dose: 27.0 mg/kg/injection, schedule: Q04DX003 (ip), vehicle: saline sonified 109 % of control

COc1cccc(/C=C2\CCc3ccccc3C2=O)c1
inactive: [1] 100 % of control | [2] 99 % of control | [3] 106 % of control

Cc1cn(O)cc(C)c1=N
inactive: dose: 12.5 mg/kg/injection, schedule: Q01DX009 (ip), vehicle: saline with Tween-80 100 % of control | dose: 25.0 mg/kg/injection, schedule: Q01DX009 (ip), vehicle: saline with Tween-80 100 % of control | dose: 50.0 mg/kg/injection, schedule: Q01DX009 (ip), vehicle: saline with Tween-80 108 % of control

COc1cc(O)c(O)c(C(C)(C)C)c1
inactive: dose: 3.75 mg/kg/injection, schedule: Q01DX005 (ip), vehicle: saline with Tween-80 103 % of control | [4] 105 % of control | [5] 108 % of control | dose: 30.0 mg/kg/injection, schedule: Q01DX005 (ip), vehicle: saline with Tween-80 116 % of control | [6] 107 % of control | [7] 95 % of control

CCN(CC)c1ncnc2c1ncn2Cc1ccc(C(=O)OC)cc1
inactive: [8] 100 % of control | [9] 100 % of control | [10] 94 % of control

COC1=C(OC)C(=O)C([Si](C)(C)C)=C(CO)C1=O
inactive: [4] 103 % of control | [5] 105 % of control

COC(=O)/C=C1/Nc2ccccc2SC1C(=O)OC (stereo not drawn)
inactive: [8] 104 % of control | [9] 99 % of control | [10] 100 % of control

Cc1ccc(S(=O)(=O)N(CCCc2ccccc2)S(=O)(=O)c2ccc(C)cc2)cc1
inactive: [1] 96 % of control | [2] 97 % of control | [3] 100 % of control

CS(=O)(=O)CS(=O)(=O)OCCBr
inactive: dose: 12.5 mg/kg/injection, schedule: Q01DX005 (ip), vehicle: saline with Tween-80 98 % of control | dose: 25.0 mg/kg/injection, schedule: Q01DX005 (ip), vehicle: saline with Tween-80 123 % of control
active: [8] 159 % of control | [9] 226 % of control

COC(=O)C1C(NCc2ccccc2)=CC(C)(C)C(C(=O)OC)C1c1ccccc1 (stereo not drawn)
inactive: dose: 50.0 mg/kg/injection, schedule: Q01DX005 (ip), vehicle: Klucel (hydroxypropylcellulose) (HPC) 103 % of control | dose: 100.0 mg/kg/injection, schedule: Q01DX005 (ip), vehicle: Klucel (hydroxypropylcellulose) (HPC) 100 % of control | dose: 200.0 mg/kg/injection, schedule: Q01DX005 (ip), vehicle: Klucel (hydroxypropylcellulose) (HPC) 97 % of control

OCCC1CCN(CC/C=C2/c3ccc(F)cc3Sc3ccc(C(F)(F)F)cc32)CC1
inactive: dose: 25.0 micrograms/kg/injection, schedule: Q01DX001 (ip), vehicle: saline 99 % of control | dose: 50.0 micrograms/kg/injection, schedule: Q01DX001 (ip), vehicle: saline 114 % of control and 96 % of control | dose: 100.0 micrograms/kg/injection, schedule: Q01DX001 (ip), vehicle: saline 117 % of control

COc1cccc2c1NC(OC)C1CC(/C=C/C(=O)N(C)C)=CN1C2=O (stereo not drawn)
active: dose: 320.0 micrograms/kg/injection, schedule: Q01DX005 (ip), vehicle: saline with Tween-80 155 % of control

CN(C)CCSC1=Nc2ccc(Cl)cc2C(c2ccccc2Cl)=NC1
inactive: [6] 98 % of control | [11] 99 % of control | [7] 101 % of control | [12] 104 % of control | dose: 240.0 mg/kg/injection, schedule: Q01DX005 (ip), vehicle: saline with Tween-80 105 % of control | [13] 98 % of control

C[C@@H]1C[C@H](C)OC(CO)O1 (stereo partly drawn) (tested in a mixture with another compound)
inactive: [11] 100 % of control | [12] 99 % of control | [13] 97 % of control

O=C(NCc1ccccc1)C1C(=O)N(Cc2ccccc2)C(=O)/C1=N/O (stereo not drawn)
inactive: [8] 100 % of control | [9] 100 % of control | [10] 100 % of control

COCC(O)CN1CCN(c2ccccc2C)CC1 (stereo not drawn)
inactive: dose: 25.0 mg/kg/injection, schedule: Q04DX003 (ip), vehicle: saline with Tween-80 100 % of control | dose: 50.0 mg/kg/injection, schedule: Q04DX003 (ip), vehicle: saline with Tween-80 100 % of control | dose: 100.0 mg/kg/injection, schedule: Q04DX003 (ip), vehicle: saline with Tween-80 90 % of control

OCC1CSCN1 (stereo not drawn)
inactive: dose: 50.0 mg/kg/injection, schedule: Q04DX002 (ip), vehicle: saline 93 % of control | dose: 100.0 mg/kg/injection, schedule: Q04DX002 (ip), vehicle: saline 99 % of control and 101 % of control | dose: 200.0 mg/kg/injection, schedule: Q04DX002 (ip), vehicle: saline 101 % of control and 120 % of control | dose: 400.0 mg/kg/injection, schedule: Q04DX002 (ip), vehicle: saline 101 % of control and 104 % of control
